Consider 22 molecules from patent US9493441B2, “Acyclic cyanoethylpyrazoles as janus kinase inhibitors” (Merck Sharp & Dohme Corp., priority 2011, dated 2016).

As usually defined, the IC50 is the concentration at which inhibition is half-maximal.

Like-named read-outs stand apart in the source and are kept apart here.

The target of one assay is JAK2 (Homo sapiens (Human), UniProt O60674). The assay can be described thus: Jak biochemical HTRF assay, JAK2. Background: In TR-FRET formats the signal depends on donor and acceptor labels being close together.
Sequence of JAK2 (O60674 849-1124): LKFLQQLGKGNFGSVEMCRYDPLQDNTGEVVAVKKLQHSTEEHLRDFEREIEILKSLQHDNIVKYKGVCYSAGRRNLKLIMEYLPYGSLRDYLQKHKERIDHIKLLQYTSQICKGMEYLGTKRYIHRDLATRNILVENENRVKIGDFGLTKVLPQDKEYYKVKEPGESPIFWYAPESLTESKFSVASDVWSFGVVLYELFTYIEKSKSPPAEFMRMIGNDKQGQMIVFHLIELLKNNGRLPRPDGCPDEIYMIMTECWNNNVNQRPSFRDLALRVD
The target in the next assay is JAK1 (Homo sapiens (Human), UniProt P23458). The assay can be described thus: Jak biochemical HTRF assay, JAK1.
Sequence of JAK1 (P23458 875-1153): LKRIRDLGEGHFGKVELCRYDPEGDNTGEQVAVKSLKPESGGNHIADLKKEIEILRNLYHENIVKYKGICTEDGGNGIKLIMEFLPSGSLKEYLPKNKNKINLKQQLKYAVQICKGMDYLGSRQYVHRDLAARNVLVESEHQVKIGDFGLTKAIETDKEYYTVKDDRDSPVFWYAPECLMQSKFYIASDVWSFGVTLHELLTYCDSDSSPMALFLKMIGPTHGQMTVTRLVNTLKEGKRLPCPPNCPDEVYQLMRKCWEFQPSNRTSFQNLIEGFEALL
The mark [1] stands for this setting: JAK2 IC50 (nM), recombinant GST-tagged catalytic domain, [ATP] […].
Where [2] appears, read: JAK1 IC50 (nM), recombinant GST-tagged catalytic domain, [ATP] 31.8 μM.
Where [3] appears, read: read-out: JAK2 IC50, recombinant GST-tagged catalytic domain, [ATP] […].
Where [4] appears, read: read-out: JAK1 IC50, recombinant GST-tagged catalytic domain, [ATP] 31.8 μM.

For `CC(C)(C)OC(=O)N1CCC(C(CC#N)n2cc(C(N)=O)c(Nc3ccc(F)cc3)n2)C1` (stereo not shown) [Example 1-3, tert-butyl 3-(1-{4-carbamoyl-3-[(4-fluorophenyl)amino]-1H-pyrazol-1-yl}-2-cyanoethyl)pyrrolidine-1-carboxylate], the IC50 at JAK2 (setting [1]) was determined as 1480 nM; on JAK1 (setting [2]), 267 nM.
Taken in the same sequence, the figures for `N#CC[C@@H](C1CCN(C(=O)OC2COC2)CC1)n1cc(C(N)=O)c(Nc2ccc(F)cc2)n1` [Example 11-4, oxetan-3-yl 4-[(1S)-1-{4-carbamoyl-3-[(4-fluorophenyl)amino]-1H-pyrazol-1-yl}-2-cyanoethyl]piperidine-1-carboxylate] were 861 nM and 52 nM.
Consider `Cc1nnc(-c2ccc(Nc3nn(C(CC#N)C4CC4)cc3C(N)=O)cc2)o1` (stereo not shown) [Example 4-25, 1-(2-cyano-1-cyclopropylethyl)-3-{[4-(5-methyl-1,3,4-oxadiazol-2-yl)phenyl]amino}-1H-pyrazole-4-carboxamide], for which the half-maximal inhibitory concentration (IC50) on JAK2 (setting [1]) was 221 nM; on JAK1 (setting [2]), 42 nM.
With `N#CCC(C1CC1)n1cc(C(N)=O)c(Nc2ccccc2F)n1` (stereo not shown) [Example 6-2, 1-(2-cyano-1-cyclopropylethyl)-3-[(2-fluorophenyl)amino]-1H-pyrazole-4-carboxamide], the IC50 at JAK2 (setting [3]) is 1480 nM; on JAK1 (setting [4]), 360 nM.
Regarding `CC(C)(C)OC(=O)N1CCC(C(CC#N)n2cc(C(N)=O)c(Nc3ccc(F)cc3)n2)CC1` (single isomer, unassigned) [Example 14-3, tert-butyl 4-[(1S or 1R)-1-{4-carbamoyl-3-[(4-fluorophenyl)amino]-1H-pyrazol-1-yl}-2-cyanoethyl)piperidine-1-carboxylate], the IC50 on JAK2 (setting [1]) was found to be 903 nM; at JAK1 (setting [2]), 92 nM.
Take `N#CCc1cccc(Nc2nn(C(CC#N)C3CC3)cc2C(N)=O)c1` (stereo not shown) [Example 4-9, 1-(2-cyano-1-cyclopropylethyl)-3-{[3-(cyanomethyl)phenyl]amino}-1H-pyrazole-4-carboxamide]: the half-inhibitory concentration (IC50) on JAK2 (setting [1]) is 27 nM.
For the molecule `N#CCC(C1CC1)n1cc(C(N)=O)c(Nc2ccc3ccncc3c2)n1` (stereo not shown) [Example 4-15, 1-(2-cyano-1-cyclopropylethyl)-3-(isoquinolin-7-ylamino)-1H-pyrazole-4-carboxamide], the figures for the half-maximal inhibitory concentration (IC50) on JAK2 (setting [1]) and at JAK1 (setting [2]) were 39 nM and 9 nM, respectively.
Consider `N#CC[C@H](C1CC1)n1cc(C(N)=O)c(Nc2ccc3c(c2)CNC3=O)n1` (single isomer, unassigned) [Example 19-1, 1-[(1R or 1S)-2-cyano-1-cyclopropylethyl]-3-[(1-oxo-2,3-dihydro-1H-isoindol-5-yl)amino]-1H-pyrazole-4-carboxamide], for which, on JAK2 (setting [3]), the IC50 turned out to be 15 nM.
With `CCC(CC#N)n1cc(C(N)=O)c(Nc2ccc(C(=O)N3CCS(=O)(=O)CC3)cc2)n1` (stereo not shown) [Example 1-17, 1-[1-{cyanomethyl)propyl]-3-({4-[(1,1-dioxidothiomorpholin-4-yl)carbonyl]phenyl}amino)-1H-pyrazole-4-carboxamide], the results for the IC50 on JAK2 (setting [1]) and at JAK1 (setting [2]) were 74 nM and 19 nM, respectively.
Taken in the same sequence, the figures for `C[S+]([O-])c1ccc(Nc2nn(C(CC#N)C3CC3)cc2C(N)=O)cc1` (stereo not shown) [Example 4-32, 1-(2-cyano-1-cyclopropylethyl)-3-{[4-(methylsulfinyl)phenyl]amino}-1H-pyrazole-4-carboxamide] were 13 nM and 1 nM.
Consider `N#CCC(C1CC1)n1cc(C(N)=O)c(Nc2ccc(S(N)(=O)=O)cc2)n1` (stereo not shown) [Example 6-3, 1-(2-cyano-1-cyclopropylethyl]-3-[(4-sulfamoylphenyl)amino]-1H-pyrazole-4-carboxamide], for which the IC50 was determined as 10 nM on JAK2 (setting [1]) and 1 nM on JAK1 (setting [2]).
For `CC[C@@H](CC#N)n1cc(C(N)=O)c(Nc2ccccc2)n1` (single isomer, unassigned) [Example 16-2, 1-[(1R or 1S)-1-(cyanomethyl)propyl]-3-(phenylamino)-1H-pyrazole-4-carboxamide], the IC50 at JAK2 (setting [3]) was found to be 800 nM; on JAK1 (setting [4]) it was 136 nM.
Take `CN1Cc2cc(Nc3nn(C(CC#N)C4CC4)cc3C(N)=O)ccc2C1=O` (stereo not shown) [Example 4-33, 1-(2-cyano-1-cyclopropylethyl)-3-[(2-methyl-1-oxo-2,3-dihydro-1H-isoindol-5-yl)amino]-1H-pyrazole-4-carboxamide]: the results for the IC50 at JAK2 (setting [1]) and at JAK1 (setting [2]) were 23 nM and 1 nM, respectively.
Taken in the same sequence, the figures for `CC(C#N)Cn1cc(C(N)=O)c(Nc2ccc(F)cc2)n1` (stereo not shown) [Example 9, 1-(2-Cyanopropyl)-3-[(4-fluorophenyl)amino]-1H-pyrazole-4-carboxamide] were 524 nM and 59 nM.
Taken in the same sequence, the figures for `N#CC[C@H](C1CC1)n1cc(C(N)=O)c(Nc2ccnc(F)c2)n1` (single isomer, unassigned) [Example 17-4, 1-[(1R or 1S)-2-cyano-1-cyclopropylethyl]-3-[(2-fluoropyridin-4-yl)amino]-1H-pyrazole-4-carboxamide] were 16 nM and 2 nM.
Taken in the same sequence, the figures for `CC(C)(C)OC(=O)N1CCC(C(CC#N)n2cc(C(N)=O)c(Nc3ccc(F)cc3)n2)CC1` (stereo not shown) [Example 3-1, tert-Butyl 4-(1-[4-carbamoyl-3-[(4-fluorophenyl)amino]-1H-pyrazol-1-yl]-2-cyanoethyl)piperidine-1-carboxylate] were 1500 nM and 49 nM.
With `CNC(=O)c1ccc(Nc2nn(C(CC#N)C3CC3)cc2C(N)=O)cc1` (stereo not shown) [Example 4-13, 1-(2-cyano-1-cyclopropylethyl)-3-{[4-(methylcarbamoyl)phenyl]amino}-1H-pyrazole-4-carboxamide], the 50% inhibitory concentration (IC50) on JAK2 (setting [1]) is 21 nM; on JAK1 (setting [2]) it was 2 nM.
Regarding `CC(C)COC(=O)N1CCC([C@H](CC#N)n2cc(C(N)=O)c(Nc3ccc(F)cc3)n2)CC1` (single isomer, unassigned) [Example 12-3, 2-methylpropyl 4-[(1S or 1R)-1-{4-carbamoyl-3-[(4-fluorophenyl)amino]-1H-pyrazol-1-yl}-2-cyanoethyl]piperidine-1-carboxylate], the IC50 came to 1500 nM on JAK2 (setting [1]) and 245 nM on JAK1 (setting [2]).
On to `Cc1noc(-c2ccc(Nc3nn([C@H](CC#N)C4CC4)cc3C(N)=O)cc2)n1` (single isomer, unassigned) [Example 18-1, 1-[(1R or 1S)-2-cyano-1-cyclopropylethyl]-3-{[4-(3-methyl-1,2,4-oxadiazol-5-yl)phenyl]amino}-1H-pyrazole-4-carboxamide], for which the values for the half-maximal inhibitory concentration (IC50) on JAK2 (setting [3]) and on JAK1 (setting [4]) were 19 nM and 2 nM, respectively.
As for `N#CCC(C1CC1)n1cc(C(N)=O)c(Nc2ccc3c(c2)OCCO3)n1` (stereo not shown) [Example 4-20, 1-(2-cyano-1-cyclopropylethyl)-3-(2,3-dihydro-1,4-benzodioxin-6-ylamino)-1H-pyrazole-4-carboxamide], the IC50 at JAK2 (setting [1]) turned out to be 87 nM; on JAK1 (setting [2]), 24 nM.
Take `N#CC[C@@H](C1CC1)n1cc(C(N)=O)c(Nc2ccc3c(c2)CNC3=O)n1` (single isomer, unassigned) [Example 19-2, 1-[(1R or 1S)-2-cyano-1-cyclopropylethyl]-3-[(1-oxo-2,3-dihydro-1H-isoindol-5-yl)amino]-1H-pyrazole-4-carboxamide]: on JAK2 (setting [3]), the IC50 worked out at 105 nM.
In the case of `N#CCC(C1CC1)n1cc(C(N)=O)c(Nc2ccc3c(c2)CNC3=O)n1` (stereo not shown) [Example 7, 1-(2-Cyano-1-cyclopropylethyl)-3-[(1-oxo-2,3-dihydro-4H-isoindol-5-yl)amino]-1H-pyrazole-4-carboxamide], the IC50 on JAK2 (setting [1]) was found to be 38 nM.
